This note sets out measurements from patent US20210198277A1, “AMINE-SUBSTITUTED ARYL OR HETEROARYL COMPOUNDS” (Epizyme, Inc., priority 2016, published 2021).

The experiment has as its target T1, EHMT2 (Homo sapiens, UniProt Q96KQ7).
T1 construct: host or cells: MDA-MB-231
T1 sequence (Q96KQ7 1-1210): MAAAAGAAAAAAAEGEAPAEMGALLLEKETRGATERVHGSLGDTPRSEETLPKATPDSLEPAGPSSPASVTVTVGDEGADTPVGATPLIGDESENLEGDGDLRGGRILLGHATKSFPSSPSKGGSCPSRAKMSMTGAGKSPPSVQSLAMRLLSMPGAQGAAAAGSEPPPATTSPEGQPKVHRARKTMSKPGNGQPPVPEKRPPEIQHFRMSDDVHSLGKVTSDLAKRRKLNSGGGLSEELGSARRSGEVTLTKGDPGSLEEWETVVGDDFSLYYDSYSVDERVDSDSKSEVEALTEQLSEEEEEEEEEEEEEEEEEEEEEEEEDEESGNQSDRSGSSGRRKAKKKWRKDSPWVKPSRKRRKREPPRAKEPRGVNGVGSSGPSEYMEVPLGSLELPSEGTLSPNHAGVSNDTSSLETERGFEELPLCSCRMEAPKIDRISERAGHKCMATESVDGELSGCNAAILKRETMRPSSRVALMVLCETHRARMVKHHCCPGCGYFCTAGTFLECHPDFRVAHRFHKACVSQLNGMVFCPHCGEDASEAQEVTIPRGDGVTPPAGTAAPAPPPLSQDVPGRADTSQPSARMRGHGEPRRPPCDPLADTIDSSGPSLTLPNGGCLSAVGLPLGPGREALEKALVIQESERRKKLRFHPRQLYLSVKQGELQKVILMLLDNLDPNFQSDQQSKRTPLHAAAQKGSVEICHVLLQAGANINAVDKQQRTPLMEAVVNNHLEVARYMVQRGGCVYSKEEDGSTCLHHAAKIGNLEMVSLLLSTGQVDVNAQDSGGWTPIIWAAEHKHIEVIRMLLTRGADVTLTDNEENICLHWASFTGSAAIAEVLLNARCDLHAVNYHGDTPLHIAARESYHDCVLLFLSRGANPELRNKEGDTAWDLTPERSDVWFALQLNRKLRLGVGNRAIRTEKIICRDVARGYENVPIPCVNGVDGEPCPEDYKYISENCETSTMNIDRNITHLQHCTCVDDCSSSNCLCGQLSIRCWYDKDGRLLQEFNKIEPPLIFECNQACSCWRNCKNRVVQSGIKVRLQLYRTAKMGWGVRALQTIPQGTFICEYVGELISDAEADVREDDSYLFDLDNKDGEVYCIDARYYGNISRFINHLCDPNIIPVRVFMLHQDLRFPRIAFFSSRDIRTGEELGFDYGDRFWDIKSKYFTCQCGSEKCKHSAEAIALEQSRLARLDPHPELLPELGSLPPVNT
Nature of the experiment: MDA-MB-231 H3K9me2 in-cell Western assay (EHMT2 ICW). As to conditions: Table III; MDA-MB-231 H3K9me2 in-cell Western; read-out: EHMT2 ICW (IC50 μM). It is filed as cell-based. A digest of the protocol: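 IC50 values came from a variable-slope four-parameter fit on triplicate wells, using % inhibition from the 800/700 nm infrared signal ratio (anti-H3K9me2 versus DRAQ5 DNA stain). Before fixation and immunostaining, MDA-MB-231 cells, 3,000 per well, were exposed to compound for 48 h at 37 °C.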

As for `CNc1ccnc(Nc2ccc(OC)c(OCCCN3CC(O)C3)c2)n1` [Compound 414, 1-(3-(2-methoxy-5-((4-(methylamino)pyrimidin-2-yl)amino)phenoxy)propyl)azetidin-3-ol], the IC50 (commonly the midpoint of a concentration-inhibition curve) lay within 0.1 to 1 µM.
Under `CCCN1CCC(COc2cc(Nc3nccc(NC)n3)ccc2OC)C1` (stereo not shown) [Compound 420, N^2-(4-methoxy-3-((1-propylpyrrolidin-3-yl)methoxy)phenyl)-N^4-methylpyrimidine-2,4-diamine] stands 1 to 10 µM.
With `CNc1cc(C)nc(Nc2ccc(OC)c(COC3CCN(C)C3)c2)n1` (stereo not shown) [Compound 421, N^2-(4-methoxy-3-(((1-methylpyrrolidin-3-yl)oxy)methyl)phenyl)-N^4,6-dimethylpyrimidine-2,4-diamine], the IC50 fell in the range of 1 to 10 µM.
Under `CNc1ccnc(Nc2ccc(OC)c(OCC3CCN(CC4CC4)C3)c2)n1` (stereo not shown) [Compound 422, N^2-(3-((1-(cyclopropylmethyl)pyrrolidin-3-yl)methoxy)-4-methoxyphenyl)-N^4-methylpyrimidine-2,4-diamine] stands 1 to 10 µM.
